Source: patent US20230019491A1, “PYRIMIDINE TBK/IKKe INHIBITOR COMPOUNDS AND USES THEREOF” (Merck Patent GmbH, priority 2017, published 2023)

Key:
TBK1 = target: T1, TBK1 (Homo sapiens, UniProt Q9UHD2); experiment: TBK biochemical assay; conditions: 10 point 1:4 dose response, 30 uM top concentration, 90 min at 25° C., LabChip EZ Reader II; read-out: TBK1_IC50
T1 sequence (Q9UHD2 1-729): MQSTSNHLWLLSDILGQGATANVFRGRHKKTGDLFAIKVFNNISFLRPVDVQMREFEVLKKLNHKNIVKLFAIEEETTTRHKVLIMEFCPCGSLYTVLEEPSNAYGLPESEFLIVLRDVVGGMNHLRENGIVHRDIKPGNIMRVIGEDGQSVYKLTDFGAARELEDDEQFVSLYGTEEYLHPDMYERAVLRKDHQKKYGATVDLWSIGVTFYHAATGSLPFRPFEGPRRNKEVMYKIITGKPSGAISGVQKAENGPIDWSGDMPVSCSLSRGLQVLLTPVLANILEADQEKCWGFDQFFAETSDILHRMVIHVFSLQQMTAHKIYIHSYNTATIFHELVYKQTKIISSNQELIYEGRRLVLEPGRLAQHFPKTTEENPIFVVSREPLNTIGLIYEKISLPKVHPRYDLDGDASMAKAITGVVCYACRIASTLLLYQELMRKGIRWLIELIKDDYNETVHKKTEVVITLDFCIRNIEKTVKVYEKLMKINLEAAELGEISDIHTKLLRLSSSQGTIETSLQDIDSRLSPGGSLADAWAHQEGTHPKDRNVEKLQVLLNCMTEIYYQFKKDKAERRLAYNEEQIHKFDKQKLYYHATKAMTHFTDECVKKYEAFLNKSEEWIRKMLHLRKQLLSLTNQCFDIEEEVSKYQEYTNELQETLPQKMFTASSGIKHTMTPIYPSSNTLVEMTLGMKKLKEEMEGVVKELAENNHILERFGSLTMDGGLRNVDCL
In short: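 Read-out was a Caliper LabChip mobility-shift assay, run after a 90-min, 25 °C reaction of TBK1 with substrate and compounds, quenched with stop buffer. Control wells received staurosporine at 10 uM final.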

IKKε = target: T2, IKKε (Homo sapiens, UniProt Q14164); experiment: IKKε biochemical assay; conditions: 10 point 1:4 dose response, 30 uM top concentration, 90 min at 25° C., LabChip EZ Reader II; read-out: IKKε_IC50
T2 sequence (Q14164 1-716): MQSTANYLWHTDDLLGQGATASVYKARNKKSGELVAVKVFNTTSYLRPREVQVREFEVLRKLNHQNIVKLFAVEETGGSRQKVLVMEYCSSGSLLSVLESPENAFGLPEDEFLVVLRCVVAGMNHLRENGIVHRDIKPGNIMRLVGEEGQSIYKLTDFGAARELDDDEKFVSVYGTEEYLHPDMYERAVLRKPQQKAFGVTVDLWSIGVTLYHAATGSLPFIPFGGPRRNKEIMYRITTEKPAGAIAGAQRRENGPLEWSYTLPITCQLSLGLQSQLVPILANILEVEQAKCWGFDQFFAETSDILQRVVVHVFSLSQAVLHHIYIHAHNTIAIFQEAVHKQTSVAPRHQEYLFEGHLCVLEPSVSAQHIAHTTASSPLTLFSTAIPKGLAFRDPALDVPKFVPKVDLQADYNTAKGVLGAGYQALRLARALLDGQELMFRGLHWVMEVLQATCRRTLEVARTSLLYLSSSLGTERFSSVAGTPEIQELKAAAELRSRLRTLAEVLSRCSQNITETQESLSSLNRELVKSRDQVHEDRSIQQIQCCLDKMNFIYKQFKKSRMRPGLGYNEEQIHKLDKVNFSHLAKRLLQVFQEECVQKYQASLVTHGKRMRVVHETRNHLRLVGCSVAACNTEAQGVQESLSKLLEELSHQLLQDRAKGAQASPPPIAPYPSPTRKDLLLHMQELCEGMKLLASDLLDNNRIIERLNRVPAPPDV
In short: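 Mobility-shift LabChip read-out followed a 90 min, 25° C. reaction of IKKε with substrate and test compound, with DMSO held at 1% final. Reactions were ended with stop buffer. Wells with 10 uM final staurosporine defined complete inhibition, and DMSO-only wells the uninhibited level.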

With COc1nc(Nc2nccc(-c3ccc(OC4CCN(C(=O)[C@@H](O)C(C)C)CC4(F)F)c(C#N)c3)n2)ccc1C1CCN(C2COC2)CC1 (stereo partly drawn) [Example 236, 2-[3,3-Difluoro-1-((S)-2-hydroxy-3-methyl-butyryl)-piperidin-4-yloxy]-5-[2-(2-methoxy-1′-oxetan-3-yl-1′,2′,3′,4′,5′,6′-hexahydro-[3,4′]bipyridinyl-6-ylamino)-pyrimidin-4-yl]-benzonitrile] the IC50 (TBK1) was less than 100 nM and the IC50 (IKKε) was less than 100 nM.
COc1nc(Nc2nccc(-c3ccc(OC4CCN(C(=O)C5(O)CC5)CC4(F)F)c(C#N)c3)n2)ccc1C1CCN(C2COC2)CC1 (stereo not shown) [Example 237, 2-[3,3-Difluoro-1-(1-hydroxy-cyclopropanecarbonyl)-piperidin-4-yloxy]-5-[2-(2-methoxy-1′-oxetan-3-yl-1′,2′,3′,4′,5′,6′-hexahydro-[3,4′]bipyridinyl-6-ylamino)-pyrimidin-4-yl]-benzonitrile] showed an IC50 (TBK1) of less than 100 nM and an IC50 (IKKε) of less than 100 nM.
For COc1nc(Nc2nccc(-c3ccc(OC4CCN(C(=O)[C@H](O)C(C)C)CC4(F)F)c(C#N)c3)n2)ccc1C1CCN(C2COC2)CC1 (stereo partly drawn) [Example 238, 2-[3,3-Difluoro-1-((R)-2-hydroxy-3-methyl-butyryl)-piperidin-4-yloxy]-5-[2-(2-methoxy-1′-oxetan-3-yl-1′,2′,3′,4′,5′,6′-hexahydro-[3,4′]bipyridinyl-6-ylamino)-pyrimidin-4-yl]-benzonitrile], the IC50 (TBK1) was 100 to 1000 nM and the IC50 (IKKε) was 100 to 1000 nM.
Work on COc1nc(Nc2nccc(-c3ccc(OC4CCN(C(=O)C(O)C5CC5)CC4(F)F)c(C#N)c3)n2)ccc1C1CCN(C2COC2)CC1 (stereo not shown) [Example 239, 2-[1-(2-Cyclopropyl-2-hydroxy-acetyl)-3,3-difluoro-piperidin-4-yloxy]-5-[2-(2-methoxy-1′-oxetan-3-yl-1′,2′,3′,4′,5′,6′-hexahydro-[3,4′]bipyridinyl-6-ylamino)-pyrimidin-4-yl]-benzonitrile] yielded an IC50 (TBK1) of less than 100 nM and an IC50 (IKKε) of less than 100 nM.
Molecule COc1cccc(Nc2nccc(-c3ccc(O[C@H]4CCN(C(=O)[C@H](C)O)CC4(F)F)c(C#N)c3)n2)n1 [Example 240, 2-[[(4S)-3,3-difluoro-1-[(2S)-2-hydroxypropanoyl]piperidin-4-yl]oxy]-5-[2-[(6-methoxypyridin-2-yl)amino]pyrimidin-4-yl]benzonitrile] has an IC50 (TBK1) of 100 to 1000 nM and an IC50 (IKKε) of 100 to 1000 nM.
COc1cccc(Nc2nccc(-c3ccc(O[C@@H]4CCN(C(=O)[C@H](C)O)CC4(F)F)c(C#N)c3)n2)n1 [Example 241, 2-[[(4R)-3,3-difluoro-1-[(2S)-2-hydroxypropanoyl]piperidin-4-yl]oxy]-5-[2-[(6-methoxypyridin-2-yl)amino]pyrimidin-4-yl]benzonitrile] showed an IC50 (TBK1) of less than 100 nM and an IC50 (IKKε) of less than 100 nM.
COc1cccc(Nc2nccc(-c3ccc(OC4CCN(C(=O)[C@@H](O)CO)CC4(F)F)c(C#N)c3)n2)n1 (stereo partly drawn) [Example 242, 2-[1-((S)-2,3-Dihydroxy-propionyl)-3,3-difluoro-piperidin-4-yloxy]-5-[2-(6-methoxy-pyridin-2-ylamino)-pyrimidin-4-yl]-benzonitrile] was tested, and the IC50 (TBK1) was less than 100 nM and the IC50 (IKKε) was less than 100 nM.
In the case of N#Cc1cc(-c2ccnc(Nc3ccccn3)n2)ccc1OC1CCN(C(=O)[C@@H](O)CO)CC1(F)F (stereo partly drawn) [Example 243, 2-[1-((S)-2,3-Dihydroxy-propionyl)-3,3-difluoro-piperidin-4-yloxy]-5-[2-(pyridin-2-ylamino)-pyrimidin-4-yl]-benzonitrile], the IC50 (TBK1) is reported as less than 100 nM and the IC50 (IKKε) is reported as less than 100 nM.
Molecule COc1ccc(Nc2nccc(-c3ccc(OC4CCN(C(=O)[C@@H](O)CO)CC4(F)F)c(C#N)c3)n2)nc1OC (stereo partly drawn) [Example 244, 2-[1-((S)-2,3-Dihydroxy-propionyl)-3,3-difluoro-piperidin-4-yloxy]-5-[2-(5,6-dimethoxy-pyridin-2-ylamino)-pyrimidin-4-yl]-benzonitrile] has an IC50 (TBK1) of less than 100 nM and an IC50 (IKKε) of less than 100 nM.
C[C@H](O)C(=O)N1CCC(Oc2ccc(-c3ccnc(Nc4ccc(N5CCN(C6COC6)CC5)cn4)n3)cc2C#N)C(F)(F)C1 (stereo partly drawn) [Example 245, 2-([33-difluoro-1-[(2S)-2-hydroxypropanoyl]piperidin-4-yl]oxy)-5-[2-([5-[4-(oxetan-3-yl)piperazin-1-yl]pyridin-2-yl]amino)pyrimidin-4-yl]benzonitrile] showed an IC50 (TBK1) of less than 100 nM and an IC50 (IKKε) of less than 100 nM.
In the case of COc1nc(Nc2nccc(-c3ccc(OC4CCN(C(=O)[C@H](C)OC)CC4(F)F)c(C#N)c3)n2)ccc1N1CCN(C2COC2)CC1 (stereo partly drawn) [Example 246, 2-[3,3-Difluoro-1-((S)-2-methoxy-propionyl)-piperidin-4-yloxy]-5-{2-[6-methoxy-5-(4-oxetan-3-yl-piperazin-1-yl)-pyridin-2-ylamino]-pyrimidin-4-yl}-benzonitrile], the IC50 (TBK1) is reported as less than 100 nM and the IC50 (IKKε) is reported as less than 100 nM.
COc1nc(Nc2nccc(-c3ccc(O[C@H]4CCN(C(=O)[C@H](C)O)CC4(F)F)c(C#N)c3)n2)ccc1N1CCN(C2COC2)[C@@H](C)C1 [Example 247, 2 2-[(S)-3,3-Difluoro-1-((S)-2-hydroxy-propionyl)-piperidin-4-yloxy]-5-{2-[6-methoxy-5-((S)-3-methyl-4-oxetan-3-yl-piperazin-1-yl)-pyridin-2-ylamino]-pyrimidin-4-yl}-benzonitrile] showed an IC50 (TBK1) of less than 100 nM and an IC50 (IKKε) of less than 100 nM.
Molecule COc1nc(Nc2nccc(-c3ccc(O[C@@H]4CCN(C(=O)[C@H](C)O)CC4(F)F)c(C#N)c3)n2)ccc1N1CCN(C2COC2)[C@@H](C)C1 [Example 248, 2 2-[(R)-3,3-Difluoro-1-((S)-2-hydroxy-propionyl)-piperidin-4-yloxy]-5-{2-[6-methoxy-5-((S)-3-methyl-4-oxetan-3-yl-piperazin-1-yl)-pyridin-2-ylamino]-pyrimidin-4-yl}-benzonitrile] has an IC50 (TBK1) of less than 100 nM and an IC50 (IKKε) of less than 100 nM.
For CCOc1nc(Nc2nccc(-c3ccc(OC4CCN(C(=O)[C@H](C)O)CC4(F)F)c(C#N)c3)n2)ccc1N1CCN(C2COC2)CC1 (stereo partly drawn) [Example 249, 2-([33-difluoro-1-[(2S)-2-hydroxypropanoyl]piperidin-4-yl]oxy)-5-[2-([6-ethoxy-5-[4-(oxetan-3-yl)piperazin-1-yl]pyridin-2-yl]amino)pyrimidin-4-yl]benzonitrile], the IC50 (TBK1) was less than 100 nM and the IC50 (IKKε) was less than 100 nM.
For COc1nc(Nc2nccc(-c3ccc(OC4CCN(C(=O)C5CCO5)CC4(F)F)c(C#N)c3)n2)ccc1N1CCN(C2COC2)CC1 (stereo not shown) [Example 250, 2-[3,3-Difluoro-1-(oxetane-2-carbonyl)-piperidin-4-yloxy]-5-{2-[6-methoxy-5-(4-oxetan-3-yl-piperazin-1-yl)-pyridin-2-ylamino]-pyrimidin-4-yl}-benzonitrile], the IC50 (TBK1) was less than 100 nM and the IC50 (IKKε) was less than 100 nM.
Molecule COc1nc(Nc2nccc(-c3ccc(OC4CCN(C(=O)C(C)C#N)CC4(F)F)c(C#N)c3)n2)ccc1N1CCN(C2COC2)CC1 (stereo not shown) [Example 251, 2-[1-(2-Cyano-2-methyl-acetyl)-33-difluoro-piperidin-4-yloxy]-5-{2-[6-methoxy-5-(4-oxetan-3-yl-piperazin-1-yl)-pyridin-2-ylamino]-pyrimidin-4-yl}-benzonitrile] has an IC50 (TBK1) of less than 100 nM and an IC50 (IKKε) of less than 100 nM.
With COc1nc(Nc2nccc(-c3ccc(OC4CCN(C(=O)[C@@H](C)CO)CC4(F)F)c(C#N)c3)n2)ccc1N1CCN(C2COC2)CC1 (stereo partly drawn) [Example 252, 2-[3,3-Difluoro-1-((S)-3-hydroxy-2-methyl-propionyl)-piperidin-4-yloxy]-5-{2-[6-methoxy-5-(4-oxetan-3-yl-piperazin-1-yl)-pyridin-2-ylamino]-pyrimidin-4-yl}-benzonitrile] the IC50 (TBK1) was less than 100 nM and the IC50 (IKKε) was less than 100 nM.
